Measured values published in patent publication US5698550A, “Tetralin and chroman derivatives useful in the treatment of asthma, arthritis and related diseases” (Pfizer Inc., priority 1993, dated 1997).

System: PAF-induced lethality in CD1 male mice
Assay: PAF lethality assay
Assay type: in vivo
Settings: Mus musculus; positive control; oral dosing 45 minutes before i.v. PAF injection; mortality compared to controls; read-out: approximate ED 50
Procedure: To evaluate the compounds of the formula (I) in vivo, they are tested by the so-called PAF lethality assay procedure:
Mice: CD1 males, all approximately the same weight (approximately 26 grams), 12 per group.
Vehicle for oral drug dosing: EES (5% ethanol, 5% emulphor, 90% saline). Stored at room temperature.
Drugs: For routine screening at 50 mg/kg, 20 mg drug is dissolved in 4 ml EES, using sonication in a sonicator bath or grinding in a Ten Broeck grinder to dissolve drug if necessary. If solubility is still a problem, the drug is used as a suspension.
Vehicle for i.v. Injection: Saline with 2.5 mg/ml Bovine Serum Albumin (BSA, Sigma #A4378) and 0.05 mg/ml Propranolol (Sigma #P0884). Prepared fresh daily and kept at room temperature.
Platelet Activating Factor (PAF): A […] stock solution is prepared by dissolving 1 mg PAF (Calbiochem #429460) in 0.18 ml ethanol. This is stored at -20° C. and is diluted in vehicle (see above) the day of use. The concentration of PAF used is calibrated so that when injected at 0.1 ml/10 grams body weight, it will kill approximately 80% of untreated controls. This is usually about […] (a 1 to 2034 dilution from stock). […]
45 minutes before PAF injection, mice are treated orally with drug using 0.1 ml/10 grams body weight. […] Results are expressed as percent mortality as compared to controls. […]

`O=C1CCN(c2ccccc2)N1` [Phenidone] gave an ED50 of roughly 25 mg/kg.
